Laboratory results published in patent US8450243B2, “Herbicidal quinoline and 1,8-naphthyridine compounds” (Syngenta Limited, priority 2009, dated 2013).

Columns and labels:
Assay type in all cases: in vivo
[1] = test system: Amaranthus retoflexus (AMARE); experiment: Herbicidal glasshouse test, post-emergence; conditions: POST Application, evaluated after 13 days; for damage to plant (100=total damage to plant; 0=no damage to plant): 250 g/ha; for pest or weed control at 250 g/ha: Amaranthus retroflexus, post-emergence, 312 h, read-out: damage to plant (100=total damage to plant; 0=no damage to plant)
Procedure: (§1) Seeds of a variety of test species were sown in standard soil in pots (Alopecurus myosuroides (ALOMY), Setaria faberi (SETFA), Echinochloa crus-galli (ECHCG), Abuthilon theophrasti (ABUTH) and Amaranthus retoflexus (AMARE)). After cultivation for one day (pre-emergence) or after 8 days cultivation (post-emergence) under controlled conditions in a glasshouse (at 24/16° C., day/night; 14 hours light; 65% humidity), the plants were sprayed with an aqueous spray solution derived from the formulation of the technical active ingredient in acetone/water (50:50) solution containing 0.5% Tween 20 (polyoxyethelyene sorbitan monolaurate, CAS RN 9005-64-5). Compounds were applied at 250 g/ha. The test plants were then grown in a glasshouse under controlled conditions in a glasshouse (at 24/16° C., day/night; 14 hours light; 65% humidity) and watered twice daily. After 13 days for pre and post-emergence, the test was evaluated (100=total damage to plant; 0=no damage to plant).

[2] = test system: Echinochloa crus-galli (ECHCG); experiment: Herbicidal glasshouse test, post-emergence; conditions: POST Application, evaluated after 13 days; for damage to plant (100=total damage to plant; 0=no damage to plant): 250 g/ha; for pest or weed control at 250 g/ha: Echinochloa crus-galli, post-emergence, 312 h, read-out: damage to plant (100=total damage to plant; 0=no damage to plant)
Procedure: as §1

[3] = test system: Setaria faberi (SETFA); experiment: Herbicidal glasshouse test, post-emergence; conditions: POST Application, evaluated after 13 days; for damage to plant (100=total damage to plant; 0=no damage to plant): 250 g/ha; for pest or weed control at 250 g/ha: Setaria faberi, post-emergence, 312 h, read-out: damage to plant (100=total damage to plant; 0=no damage to plant)
Procedure: as §1

[4] = test system: Abuthilon theophrasti (ABUTH); experiment: Herbicidal glasshouse test, post-emergence; conditions: POST Application, evaluated after 13 days; for damage to plant (100=total damage to plant; 0=no damage to plant): 250 g/ha; for pest or weed control at 250 g/ha: Abutilon theophrasti, post-emergence, 312 h, read-out: damage to plant (100=total damage to plant; 0=no damage to plant)
Procedure: as §1

[5] = test system: Alopecurus myosuroides (ALOMY); experiment: Herbicidal glasshouse test, post-emergence; conditions: POST Application, evaluated after 13 days; for damage to plant (100=total damage to plant; 0=no damage to plant): 250 g/ha; for pest or weed control at 250 g/ha: Alopecurus myosuroides, post-emergence, 312 h, read-out: damage to plant (100=total damage to plant; 0=no damage to plant)
Procedure: as §1

[6] = test system: Amaranthus retoflexus (AMARE); experiment: Herbicidal glasshouse test, pre-emergence; conditions: PRE Application, evaluated after 13 days; for damage to plant (100=total damage to plant; 0=no damage to plant): 250 g/ha; for pest or weed control at 250 g/ha: Amaranthus retroflexus, pre-emergence, 312 h, read-out: damage to plant (100=total damage to plant; 0=no damage to plant)
Procedure: as §1

[7] = test system: Echinochloa crus-galli (ECHCG); experiment: Herbicidal glasshouse test, pre-emergence; conditions: PRE Application, evaluated after 13 days; for damage to plant (100=total damage to plant; 0=no damage to plant): 250 g/ha; for pest or weed control at 250 g/ha: Echinochloa crus-galli, pre-emergence, 312 h, read-out: damage to plant (100=total damage to plant; 0=no damage to plant)
Procedure: as §1

[8] = test system: Setaria faberi (SETFA); experiment: Herbicidal glasshouse test, pre-emergence; conditions: PRE Application, evaluated after 13 days; for damage to plant (100=total damage to plant; 0=no damage to plant): 250 g/ha; for pest or weed control at 250 g/ha: Setaria faberi, pre-emergence, 312 h, read-out: damage to plant (100=total damage to plant; 0=no damage to plant)
Procedure: as §1

[9] = test system: Abuthilon theophrasti (ABUTH); experiment: Herbicidal glasshouse test, pre-emergence; conditions: PRE Application, evaluated after 13 days; for damage to plant (100=total damage to plant; 0=no damage to plant): 250 g/ha; for pest or weed control at 250 g/ha: Abutilon theophrasti, pre-emergence, 312 h, read-out: damage to plant (100=total damage to plant; 0=no damage to plant)
Procedure: as §1

[10] = test system: Alopecurus myosuroides (ALOMY); experiment: Herbicidal glasshouse test, pre-emergence; conditions: PRE Application, evaluated after 13 days; for damage to plant (100=total damage to plant; 0=no damage to plant): 250 g/ha; for pest or weed control at 250 g/ha: Alopecurus myosuroides, pre-emergence, 312 h, read-out: damage to plant (100=total damage to plant; 0=no damage to plant)
Procedure: as §1

Structure (SMILES)	damage to plant (100=total damage to plant; 0=no damage to plant) [1]	damage to plant (100=total damage to plant; 0=no damage to plant) [2]	damage to plant (100=total damage to plant; 0=no damage to plant) [3]	damage to plant (100=total damage to plant; 0=no damage to plant) [4]	damage to plant (100=total damage to plant; 0=no damage to plant) [5]	damage to plant (100=total damage to plant; 0=no damage to plant) [6]	damage to plant (100=total damage to plant; 0=no damage to plant) [7]	damage to plant (100=total damage to plant; 0=no damage to plant) [8]	damage to plant (100=total damage to plant; 0=no damage to plant) [9]	damage to plant (100=total damage to plant; 0=no damage to plant) [10]	pest or weed control at 250 g/ha [1] [%]	pest or weed control at 250 g/ha [2] [%]	pest or weed control at 250 g/ha [3] [%]	pest or weed control at 250 g/ha [4] [%]	pest or weed control at 250 g/ha [5] [%]	pest or weed control at 250 g/ha [6] [%]	pest or weed control at 250 g/ha [7] [%]	pest or weed control at 250 g/ha [8] [%]	pest or weed control at 250 g/ha [9] [%]	pest or weed control at 250 g/ha [10] [%]
O=C1CCCC(=O)C1C(=O)c1cc2cc(F)cnc2n(-c2cc(Cl)cc(Cl)c2)c1=O [Compound 4.23]	80	80	70	80	70	70	100	90	80	90										
O=C1CCCC(=O)C1C(=O)c1cc2cc(F)cnc2n(CCOc2ccccc2)c1=O [Compound 4.16]											50	80	60	80	40	30	50	20	50	20
Cn1c(=O)c(C(=O)C2C(=O)CCCC2=O)cc2cccnc21 [Compound 1.29]											90	80	90	90	30	100	100	10	90	30
COc1ccccc1-n1c(=O)c(C(=O)C2C(=O)CCCC2=O)cc2cc(F)cnc21 [Compound 4.33]	80	90	90	80	100	100	100	100	100	100										
Cc1cc(C)c2cc(C(=O)C3C(=O)CCCC3=O)c(=O)n(C)c2n1 [Compound 1.42]											70	70	60	50	0	0	0	0	0	0
O=C1CCCC(=O)C1C(=O)c1cc2cc(F)cnc2n(Cc2ccccc2F)c1=O [Compound 4.15]	50	80	70	80	30	50	80	0	70	0										
O=C1CCCC(=O)C1C(=O)c1cc2cc(F)cnc2n(CC(F)F)c1=O [Compound 1.45]	80	80	80	80	60	100	100	80	100	70										
O=C1CCCC(=O)C1C(=O)c1cc2cc(F)cnc2n(-c2cccc(Cl)c2)c1=O [Compound 4.25]	70	80	80	80	80	50	100	100	90	90										
O=C1CCCC(=O)C1C(=O)c1cc2cc(F)cnc2n(-c2ccccc2Cl)c1=O [Compound 4.28]	80	80	80	80	70	50	100	100	100	90										
O=C1CCCC(=O)C1C(=O)c1cc2cc(F)cnc2n(-c2ccccc2[N+](=O)[O-])c1=O [Compound 4.36]											80	90	80	80	90	100	100	100	100	90
COCn1c(=O)c(C(=O)C2C(=O)CCCC2=O)cc2cc(F)cnc21 [Compound 1.43]											80	80	80	80	60	100	100	100	100	40
O=C1CCCC(=O)C1C(=O)c1cc2cc(F)cnc2n(-c2ccccc2C(F)(F)F)c1=O [Compound 4.34]	80	90	80	80	90	100	100	100	100	100										
Cn1c(=O)c(C(=O)C2C(=O)CCCC2=O)cc2ccc(Br)cc21 [Compound 3.42]											80	80	70	90	20	80	70	0	50	10
